Columns and labels:
Alpelisib + Foretinib = compound: Cc1nc(NC(=O)N2CCC[C@H]2C(N)=O)sc1-c1ccnc(C(C)(C)C(F)(F)F)c1 [Alpelisib] + COc1cc2c(Oc3ccc(NC(=O)C4(C(=O)Nc5ccc(F)cc5)CC4)cc3F)ccnc2cc1OCCCN1CCOCC1 [Foretinib] (partner 0.25 µM); assay: relative viability (nuclei count vs DMSO), 5 days (fraction); higher = more cells survive
How it was run: (§1)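 After 5 days of treatment, lung cancer cells in 1536-well plates were fixed and stained in a single step (final 0.05% Triton X-100, 1% formaldehyde, 1 ug/ml Hoechst) and their nuclei counted on 4× images. Treatment had been applied by pin tool the day after seeding as one drug alone or as a fixed anchor-drug dose with five library-drug doses (not always all listed) in √10 steps. Relative viability is the nuclei count of treated wells divided by that of vehicle wells, and values are medians of duplicate plates.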

Alpelisib + OSI-027 = compound: Cc1nc(NC(=O)N2CCC[C@H]2C(N)=O)sc1-c1ccnc(C(C)(C)C(F)(F)F)c1 [Alpelisib] + COc1cccc2cc(-c3nc([C@H]4CC[C@H](C(=O)O)CC4)n4ncnc(N)c34)[nH]c12 [OSI-027] (partner 0.5 µM); assay: as above
How it was run: as §1

UMC-11
relative viability (Alpelisib + Foretinib; first compound 0.04 µM): 1.01
relative viability (Alpelisib + Foretinib; first compound 0.1265 µM): 1.05
relative viability (Alpelisib + Foretinib; first compound 0.4 µM): 1.12
relative viability (Alpelisib + Foretinib; first compound 1.265 µM): 0.839
relative viability (Alpelisib + Foretinib; first compound 4 µM): 0.875
relative viability (Alpelisib + OSI-027; first compound 0.04 µM): 0.473
relative viability (Alpelisib + OSI-027; first compound 0.1265 µM): 0.464
relative viability (Alpelisib + OSI-027; first compound 0.4 µM): 0.502
relative viability (Alpelisib + OSI-027; first compound 1.265 µM): 0.438
relative viability (Alpelisib + OSI-027; first compound 4 µM): 0.462
